For this test, the target named is T1, MTG (recombinant microbial transglutaminase, TGase) (Streptomyces sp., UniProt A0A6H0XHW2).
T1 construct: pro-mature gene (1,149 bp) without native signal peptide, codon-optimized, behind B. subtilis YncM signal peptide; secreted by Bacillus subtilis SCK6; purified mature enzyme, 38 kDa; no tag told
T1 sequence (A0A6H0XHW2 80-410): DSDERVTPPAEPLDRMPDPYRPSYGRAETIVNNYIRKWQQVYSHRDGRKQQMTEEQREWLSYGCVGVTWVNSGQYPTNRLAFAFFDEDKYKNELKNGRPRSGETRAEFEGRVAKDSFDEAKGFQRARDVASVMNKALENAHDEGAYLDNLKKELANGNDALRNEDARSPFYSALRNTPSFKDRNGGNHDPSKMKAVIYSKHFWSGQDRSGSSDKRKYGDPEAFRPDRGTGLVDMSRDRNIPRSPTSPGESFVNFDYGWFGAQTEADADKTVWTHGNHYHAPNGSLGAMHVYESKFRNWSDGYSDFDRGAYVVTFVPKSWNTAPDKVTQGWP
Nature of the test: hydroxamate assay ([…] nm), Lineweaver-Burk plot. The class given is biochemical. The following applies: CBZ-Gln-Gly 5 to 30 mmol/l; pH 6.0; 37 °C; co-substrate hydroxylamine 100 mM, glutathione 10 mM; unit as printed (presumably μmol/ml).

Each structure is given as a SMILES string. Where a SMILES comes first, the peptide text is derived from it. The star is where a group is joined. Cbz = O=C(OCc1ccccc1)*

As for `NC(=O)CC[C@H](NC(=O)OCc1ccccc1)C(=O)NCC(=O)O` [CBZ-Gln-Gly] (Cbz-Gln-Gly-OH), the Km was 16.93 μM/ml.

Values taken from publication PMC9728238, “Heterologous Expression of Recombinant Transglutaminase in Bacillus subtilis SCK6 with Optimized Signal Peptide and Codon, and Its Impact on Gelatin Properties” (Journal of Microbiology and Biotechnology, 2020).
